Laboratory results taken from patent US20260166128A1, “HUMAN AMYLIN ANALOG, AND DERIVATIVE THEREOF AND USE THEREOF” (priority 2022, published 2026).
“Also recorded” adds a separate entry of the source. Bridge positions count the residues as written; N and C are the ends. Square brackets hold non-standard residues; d marks the D form. Primed or numbered codes have the meaning given here. Peptide text beside a SMILES is read from it. * marks the point of attachment. C20 diacid = O=C(O)CCCCCCCCCCCCCCCCCCC(=O)*; Hyp = O=C(O)[C@@H]1C[C@@H](O)CN1; Trx′ = not defined here; AEEA = NCCOCCOCC(=O)O

Tests used:
human amylin receptor = biological target: T1, human amylin receptor (Homo sapiens, UniProt O60896+P30988); assay: Luciferase assay of amylin derivatives in amylin receptor/CRE-luc CHO cell line; format: cell-based; conditions: EC50, CHO-K1/Ga15/AMY3 CRE-luc cells, 24 hours incubation, F12 medium containing 10% FBS
T1 construct: host or cells: CHO-K1/Ga15/AMY3 cells, further stably transfected with a CRE-luciferase plasmid
T1 sequence (P30988 25-474): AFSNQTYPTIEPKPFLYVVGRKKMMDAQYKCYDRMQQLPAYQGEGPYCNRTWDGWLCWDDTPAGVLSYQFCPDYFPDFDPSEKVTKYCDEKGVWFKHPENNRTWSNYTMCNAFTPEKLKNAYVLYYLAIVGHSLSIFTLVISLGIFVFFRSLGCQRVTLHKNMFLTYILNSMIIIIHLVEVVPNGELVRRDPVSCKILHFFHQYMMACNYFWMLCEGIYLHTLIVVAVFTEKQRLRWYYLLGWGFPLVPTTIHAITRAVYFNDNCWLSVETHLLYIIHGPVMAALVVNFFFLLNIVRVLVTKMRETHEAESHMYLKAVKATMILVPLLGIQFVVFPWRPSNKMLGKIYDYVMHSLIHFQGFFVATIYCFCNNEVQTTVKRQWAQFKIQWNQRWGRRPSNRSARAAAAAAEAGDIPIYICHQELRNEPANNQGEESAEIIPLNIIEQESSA
T1 sequence (O60896 24-148 partner): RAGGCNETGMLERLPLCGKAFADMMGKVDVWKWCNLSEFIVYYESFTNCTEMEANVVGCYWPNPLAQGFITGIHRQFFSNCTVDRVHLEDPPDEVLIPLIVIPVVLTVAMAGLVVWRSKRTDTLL
Method: The experiment was intended to detect the activity or efficacy of the amylin derivatives on a human amylin receptor in vitro by luciferase assay.
50 μL of growth medium (F12 medium containing 10% FBS) was added into each well of a white 96-well plate, and the stably transfected amylin/CRE-lue CHO cells were inoculated into the white 96-well plate at a density of about 20,000 cells/well for activity determination.

[1] = Study on fatty acid side chain of derivatives, weight reduction in SD rats (Example 7); format: in vivo; conditions: subcutaneous, 30 nmol/kg
Excerpt: SD rats obtained by the same method as in Example 5 were used in this experimental study. There were an experimental group E: for testing weight reduction effects of the compounds PD065 and PD187, and an experimental group F: for testing the compounds PD065, PD071, PD140, PD144, PD145, PD146 and PD147, with 5 to 8 rats in each group of the derivative test, and the rats in each group were subcutaneously administered with a derivative or a solvent by a dosage of 30 nmol/kg. The administration time of each group was recorded. After administration, the rats were put back into their cages in which food and water available for the rats were placed. Food consumption and weight changes of the rats were recorded every 24 hours by online recording or manual recording.

[2] = Freeze-thaw stability of derivatives (freeze-thaw yield by liquid chromatography); format: physicochemical
Procedure, shortened: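 Freeze-thaw yield is the ratio of peptide concentration after versus before one overnight −20° C freeze and room-temperature thaw, both quantified by RP-HPLC of supernatant after centrifugation. Samples were 0.2 mg/ml freeze-dried derivative in 20 mM PB, pH 7.0.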

For `CC[C@H](C)[C@H](NC(=O)[C@@H]1CCCN1C(=O)[C@H](CCCCN)NC(=O)[C@H](CC(C)C)NC(=O)[C@H](CC(N)=O)NC(=O)[C@H](CC(N)=O)NC(=O)[C@H](CO)NC(=O)[C@H](CO)NC(=O)[C@H](Cc1c[nH]cn1)NC(=O)[C@H](CCCNC(=N)N)NC(=O)[C@H](CC(C)C)NC(=O)[C@H](Cc1ccccc1)NC(=O)[C@H](CC(=O)O)NC(=O)[C@H](C)NC(=O)[C@H](CC(C)C)NC(=O)[C@H](CCCNC(=N)N)NC(=O)[C@H](CCC(N)=O)NC(=O)[C@@H](NC(=O)[C@H](C)NC(=O)[C@@H]1CSSC[C@H](NC(=O)[C@H](CCCCN)NC(=O)COCCOCCNC(=O)COCCOCCNC(=O)CCCCCCCCCCCCCCCCCCC(=O)O)C(=O)N[C@@H](CC(N)=O)C(=O)N[C@@H]([C@@H](C)O)C(=O)N[C@@H](C)C(=O)N[C@@H]([C@@H](C)O)C(=O)N1)[C@@H](C)O)C(=O)N[C@@H](CC(C)C)C(=O)N1CCC[C@H]1C(=O)N1CCC[C@H]1C(=O)N[C@H](C(=O)N[C@@H](CC(N)=O)C(=O)N[C@H](C(=O)NCC(=O)N[C@@H](CO)C(=O)N[C@@H](CC(N)=O)C(=O)N[C@H](C(=O)N1C[C@H](O)C[C@H]1C(N)=O)[C@@H](C)O)C(C)C)[C@@H](C)O` [PD187] ({C20 diacid-AEEA-AEEA}-KCNTATCATQRLADFLRHSSNNLKPILPPTNVGSNT[Hyp]-NH2; disulfide 2-7 (inferred)), the EC50 (human amylin receptor) was 0.016 nM and the “activity (weight reduction effect) compared with PD065” value [1] was “better than that of the PD065; also recorded: better weight reduction effect”.
With “PD146: KCNTATCATQRLADFLRHSSNNLKPILPPTNVGSNT-trans-Hyp-NH2; N-terminal; Trx + C20 diacid ({C20 diacid-Trx′}-KCNTATCATQRLADFLRHSSNNLKPILPPTNVGSNT-{trans‑Hyp-NH2}; disulfide 2-7 (inferred); reading uncertain; also: printed as KCNTATCATQRLADFLRHSSNNLKPILPPTNVGSNT-trans-Hyp-NH2)” the Dissolution property ([2]; appearance after dissolution at 0.2 mg/ml in 20 mM phosphate buffer solution (PB) (pH 7.0)) was “Clear”, the Freeze storage property ([2]; appearance after overnight storage at −20° C. and thawing to room temperature, 0.2 mg/ml in 20 mM PB (pH 7.0)) was “Clear” and the Freeze storage yield ([2]; concentration of polypeptide after freezing and thawing / concentration before, by liquid chromatography, −20° C. overnight) was 101.09%. The “activity (weight reduction effect) compared with PD065” value [1] was “better than that of the PD065”.
